For six compounds, IC50 results are on record in patent publication US9862688B2, “Hydrophobically tagged janus kinase inhibitors and uses thereof” (Dana-Farber Cancer Institute, Inc., priority 2014, dated 2018).

Experiment [1] concerns Ba/F3 JAK1. Put plainly: Ba/F3 cell proliferation analysis (CellTiter-Glo), JAK1. The experiment is classed as cell-based, murine. The following applies: Mus musculus, BaF3; Ba/F3 cells, 72 hours at 37° C., cell viability. As for the experimental part: (§1) Cell Proliferation Analysis
(§2) CellTiter-Glo® Luminescent cell viability assay (Promega) was used to assess cell survival following treatment with the compounds described herein. Cells were seeded into 384 well plates with the EL406 Combination Washer Dispenser (BioTek Instruments, Inc.), and the compounds were injected into the cells culture media with the JANUS Automated Workstation (PerkinElmer Inc.). Cells were treated with a series diluted inhibitors (20 to 0.04 μM) for 72 hours at 37° C. Luminescent measurement is performed using the 2104 Envision® Multilabel Reader (PerkinElmer Inc.). The cell lines employed include Ba/F3 (a murine interleukin-3 dependent pro-B cell line), NKL (a Natural Killer Cell Lymphoma (NKCL) cell line), CMK (an Acute Megakaryoblastic Leukemia (AMKL) cell line).
(ATP-based viability assays read luminescence as a measure of living cells.)

For experiment [2], the target named is JAK3 (Homo sapiens (Human), UniProt P52333). Put plainly: INVITROGEN Select Screening in vitro kinase activity assay. The experiment is classed as biochemical. The following applies: enzymatic. The text has this:
The in vitro activity of the compounds described herein in inhibiting JAK3 and other kinases were obtained using an INVITROGEN Select Screening assay as known in the art.

Experiment [3] has as its system Ba/F3 TYK2. Put plainly: Ba/F3 cell proliferation analysis (CellTiter-Glo), TYK2. The following applies: Mus musculus, BaF3; Ba/F3 cells, 72 hours at 37° C., cell viability. The experiment is classed as cell-based, murine. On the procedure: as §1, §2
In experiment [4] the test system is Ba/F3 ABL. Nature of the experiment: Ba/F3 cell proliferation analysis (CellTiter-Glo), ABL. Format: cell-based, murine. The following applies: Mus musculus, Ba/F3 cells, 72 hours at 37° C., cell viability. On the procedure: as §1
as §2, with “Luminescent measurement is performed using the 2104 Envision® Multilabel Reader (PerkinElmer Inc.).” left out

Experiment [5] relates to Ba/F3 JAK3. Nature of the experiment: Ba/F3 cell proliferation analysis (CellTiter-Glo), JAK3. The experiment is classed as cell-based, murine. The conditions noted are these: Ba/F3 cells, 72 hours at 37° C., cell viability. As for the experimental part: as §1, §2
Experiment [6] deals with CMK (an Acute Megakaryoblastic Leukemia (AMKL) cell line). Nature of the experiment: Cancer cell line proliferation analysis (CellTiter-Glo), CMK. Format: cell-based. The following applies: Homo sapiens; CMK cells, 72 hours at 37° C., cell viability; read-out: Cancer cell lines IC50 (nM) CMK. On the procedure:
as §1, §2

Experiment [7] deals with Ba/F3 JAK2. Nature of the experiment: Ba/F3 cell proliferation analysis (CellTiter-Glo), JAK2. Format: cell-based, murine. The conditions noted are these: Mus musculus, BaF3; Ba/F3 cells, 72 hours at 37° C., cell viability. As for the experimental part: as §1
as §2, with “Luminescent measurement is performed using the 2104 Envision® Multilabel Reader (PerkinElmer Inc.).” left out

The test system of experiment [8] is NKL (a Natural Killer Cell Lymphoma (NKCL) cell line). Nature of the experiment: Cancer cell line proliferation analysis (CellTiter-Glo), NKL. The experiment is classed as cell-based. The conditions noted are these: NKL cells, 72 hours at 37° C., cell viability, read-out: Cancer cell lines IC50 (nM) NKL. As for the experimental part: as §1, §2

JAK3, sequence (P52333 whole entry): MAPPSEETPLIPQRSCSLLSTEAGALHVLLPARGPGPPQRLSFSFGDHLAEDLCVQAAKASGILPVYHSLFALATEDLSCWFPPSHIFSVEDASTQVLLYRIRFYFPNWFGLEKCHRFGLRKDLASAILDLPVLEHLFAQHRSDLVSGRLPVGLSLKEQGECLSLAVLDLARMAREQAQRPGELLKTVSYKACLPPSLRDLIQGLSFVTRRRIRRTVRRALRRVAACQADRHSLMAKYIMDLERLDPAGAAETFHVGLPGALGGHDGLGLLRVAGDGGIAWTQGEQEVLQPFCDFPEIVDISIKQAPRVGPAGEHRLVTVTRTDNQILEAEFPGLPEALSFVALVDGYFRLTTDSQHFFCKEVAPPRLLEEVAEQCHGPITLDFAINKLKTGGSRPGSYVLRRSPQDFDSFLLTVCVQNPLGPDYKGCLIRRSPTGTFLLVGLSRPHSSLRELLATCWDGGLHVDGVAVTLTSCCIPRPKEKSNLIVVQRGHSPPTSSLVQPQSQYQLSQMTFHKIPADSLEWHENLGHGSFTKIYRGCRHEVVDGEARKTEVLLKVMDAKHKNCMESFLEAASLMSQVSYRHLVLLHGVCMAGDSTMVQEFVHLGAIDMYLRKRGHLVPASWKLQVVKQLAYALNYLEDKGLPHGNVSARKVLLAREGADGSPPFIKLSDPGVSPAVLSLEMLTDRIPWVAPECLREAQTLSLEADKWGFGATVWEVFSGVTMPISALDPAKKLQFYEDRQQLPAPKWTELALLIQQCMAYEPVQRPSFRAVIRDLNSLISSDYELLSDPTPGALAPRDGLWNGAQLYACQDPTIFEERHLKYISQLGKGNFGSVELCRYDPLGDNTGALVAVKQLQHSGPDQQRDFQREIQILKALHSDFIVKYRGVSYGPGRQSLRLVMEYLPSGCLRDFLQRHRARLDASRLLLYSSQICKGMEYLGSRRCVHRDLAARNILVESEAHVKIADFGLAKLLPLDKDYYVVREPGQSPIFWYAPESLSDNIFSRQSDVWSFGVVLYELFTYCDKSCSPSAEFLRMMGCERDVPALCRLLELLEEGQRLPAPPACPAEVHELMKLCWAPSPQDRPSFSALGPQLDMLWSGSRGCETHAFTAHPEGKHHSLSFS

Broadly, the IC50 is the concentration at which inhibition is half-maximal. `C=CC(=O)Nc1cccc(CNc2nc(Nc3ccc(N4CCN(CCCCNC(=O)CC5[C@H]6C[C@@H]7C[C@@H](C[C@H]5C7)C6)CC4)cc3)ncc2Cl)c1` (stereo partly shown) [Compound 4]: the IC50 in experiment [1] is 252 nM; in experiment [2] it was 7.95 nM; in experiment [3], 372 nM; in experiment [4] (BaF3), 623 nM; in experiment [5] (Mus musculus, BaF3, 72 h) it was 64.8 nM; in experiment [6] it was 38 nM.

Turning to `C=CC(=O)Nc1cccc(CNc2nc(Nc3cnn(C4CCN(C(=O)CC5[C@H]6C[C@@H]7C[C@@H](C[C@H]5C7)C6)CC4)c3)ncc2Cl)c1` (stereo partly shown) [Compound 6], the IC50 amounted to 2080 nM in experiment [1]; 5.9 nM in experiment [2]; 3860 nM in experiment [4] (BaF3, 72 h, heading: Ba/F3 IC50 ABL); 38 nM in experiment [5] (Mus musculus, BaF3, 72 h); 3180 nM in experiment [7].

Take `C=CC(=O)Nc1cccc(CNc2nc(Nc3ccc(N4CCN(CCCNC(=O)CC5[C@H]6C[C@@H]7C[C@@H](C[C@H]5C7)C6)CC4)cc3)ncc2Cl)c1` (stereo partly shown) [Compound 3]: the IC50 in experiment [1] is 1120 nM; in experiment [2], 12.8 nM; in experiment [3], 542 nM; in experiment [4] (BaF3), 2260 nM; in experiment [5] (Mus musculus, BaF3, 72 h), 72.7 nM; in experiment [6], 490 nM. Besides, the IC50 in experiment [7] worked out at 1220 nM.

For the compound `C=CC(=O)Nc1cccc(CNc2nc(Nc3ccc(N4CCN(CCCNC(=O)CC5[C@H]6C[C@@H]7C[C@@H](C[C@H]5C7)C6)CC4)cc3OC)ncc2Cl)c1` (stereo partly shown) [Compound 2], the IC50 turned out to be 193 nM in experiment [8]; 45 nM in experiment [2]; 1820 nM in experiment [3]; 382 nM in experiment [5]; 45 nM in experiment [5] (listed as compound 2); 273 nM in experiment [6].

For the compound `C=CC(=O)Nc1cccc(CNc2nc(Nc3cnn(C4CCN(CCNC(=O)CC5[C@H]6C[C@@H]7C[C@@H](C[C@H]5C7)C6)CC4)c3)ncc2Cl)c1` (stereo partly shown) [Compound 7], the IC50 in experiment [1] came to 954 nM; in experiment [2], 6.8 nM; in experiment [3], 794 nM; in experiment [4] (BaF3), 2280 nM; in experiment [5] (Mus musculus, BaF3, 72 h), 105 nM; in experiment [7], 1440 nM.

As to `C=CC(=O)Nc1cccc(CNc2nc(Nc3cnn(CCN4CCN(C(=O)CC5[C@H]6C[C@@H]7C[C@@H](C[C@H]5C7)C6)CC4)c3)ncc2Cl)c1` (stereo partly shown) [Compound 5], the IC50 in experiment [1] was 1110 nM; in experiment [2] it was 4.9 nM; in experiment [3], 676 nM; in experiment [5] (Mus musculus, BaF3, 72 h) it was 94 nM.
